Experimental data taken from PubChem BioAssay AID179 (DTP/NCI, 2004).
Active and inactive are the calls of the source.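 The calls were made as follows: active = compounds giving half or more protection of infected cells from virus-caused growth loss, again on retest; inactive = the rest.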

Tested on: CEM cells HIV-1 protection, formazan growth assay
Assay: NCI AIDS Antiviral Assay
Conditions: for IC50: measured here: growth of uninfected CEM cells
How it was run: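 Human CEM cells, uninfected and HIV-1-infected, exposed to five drug concentrations; growth measured by soluble formazan assay and scored as percent protection from infection, with protecting compounds retested.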

Compound	EC50 [µM]	IC50 [µM]	outcome
COC(=O)CN(CC1O[C@@H]2OC(C)(C)O[C@@H]2C1N=[N+]=[N-])C(=O)OCc1ccccc1 (some centres not stated)	> 200	20.9	–
O=C1C=Cc2ccccc2/C1=C/c1nc(-c2ccccc2)oc1O	> 100	58.9	–
COC(=O)C1=COC(C)C2CN3CCc4c([nH]c5cc(OC)ccc45)C3CC12 (configuration not stated)	> 46.8	> 46.8	–
CCc1cc(=O)n(/C(C)=C/c2ccccc2)n1C	> 200	> 200	–
O=S(=O)(SC1=NCCN1)c1cccc2ccccc12	> 81.3	37.2	–
Nc1cn(Cc2ccccc2)c2nc(/C=C3/C=CC=CC3=O)c(O)n12	> 200	> 200	–
Cc1ccnc2c1C(=O)C(=O)C=C2N(C)C	–	–	inactive
CNC1=CC(=O)C2=C(C1=O)[C@H]1CC[C@]3(C)C(=O)CC[C@H]3[C@@H]1CC2	> 200	30.2	–
CC(=O)n1nc(-c2[nH]c(C)c(-c3nn(C(C)=O)c(=S)o3)c2C)oc1=S	> 50.1	> 50.1	–
COc1ccc2c(c1)N1CCc3cc(OC)c(OC)cc3C1C2 (configuration not stated)	–	–	inactive
CCOC(=O)C1c2[nH]c3ccccc3c2CCN1C(=O)c1ccco1 (configuration not stated)	> 77.6	> 77.6	–
Cc1ccc2c(c1)nc1n2C(c2c(F)cccc2F)SC1 (configuration not stated)	> 200	33.1	–
CC(=O)NNc1nc(C)c(C(=O)NNC(=O)C(=O)Nc2ccc(Cl)cc2Cl)s1	–	–	inactive
Cc1nc(-n2nc(-c3ccccc3)cc2-c2ccccc2)sc1C(=O)/C=C/c1ccc(Cl)c(Cl)c1	> 26.3	> 26.3	–
COc1ccc(C(=O)CC(c2ccc(OC)c(OC)c2)c2c(O)c3ccccc3oc2=O)cc1OC (configuration not stated)	> 200	117	–
CC(=O)OCC1OC(n2ccc(=O)[nH]c2=O)C(OC(C)=O)C(OC(C)=O)C1OC(C)=O (configuration not stated)	> 562	> 562	–
C=C1C(=O)O[C@H]2C1C[C@H](O)[C@@]1(C)OC1CC[C@@]1(C)O[C@H]21 (some centres not stated)	> 200	6.61	–
CN(/N=C/C=N/N(C)C1=NCCCCN1)C1=NCCCCN1	> 200	> 200	–
CC(C)(C)c1ccc(N=O)cc1	> 20	2.45	–
Fc1ccccc1C=NC12CC3CC(CC(C3)C1)C2	> 20.4	> 20.4	–
O=c1[nH][nH]c2c1SCc1ccccc1-2	> 955	468	–
CNC(C)C#N (configuration not stated)	–	–	inactive

Compound	EC50 [µM]	IC50 [µM]	outcome
CC1=Nc2cc(C(=O)c3ccccc3)ccc2N=C(c2c(O)c3c(ccc4ccccc43)oc2=O)C1	> 20	> 20	–
O=C1OCOC1C1OCOC1=O (configuration not stated)	> 200	19.1	–
S=C1NC2=C(CSC/C2=C\c2ccccc2)C(c2ccccc2)N1 (configuration not stated)	> 200	37.2	–
O=C(NC1=NCC(CN2CCN(c3ccccc3)CC2)O1)Nc1ccccc1 (configuration not stated)	> 200	155	–
C=C1C(=O)OC2CC(C)C3CC(OC)OC(OC)C3(C)CC12 (configuration not stated)	> 589	3.72	–
C[P@](=O)(CCSc1ccccc1)c1ccccc1	> 468	> 468	–
[N-]=[N+]=NCN1C(=O)C2C3C=CC(C2C1=O)C1C2C(=O)N(CN=[N+]=[N-])C(=O)C2C31 (configuration not stated)	–	–	inactive
COc1ccc(-n2cnc3c(NC(CCSC)C(=O)O)ncnc32)cc1 (configuration not stated)	75.9	> 200	–
Cn1c(=O)c(C(=O)NC(=O)OCc2ccccc2)cn(CCCOC(=O)CCCCCCCCC(=O)OCCCn2cc(C(=O)NC(=O)OCc3ccccc3)c(=O)n(C)c2=O)c1=O	> 21.4	> 21.4	–
CCCCCCCCCCCCCCCCNC(=O)/C(=C\c1ccccc1O)NC(=O)c1ccccc1	> 200	> 200	–
N#CC(c1ccc(Cl)cc1)c1cccc(C(C#N)c2ccc(Cl)cc2)n1 (configuration not stated)	> 661	> 661	–
C=CC1ON(Cc2ccccc2)CCc2cc(OC)c(OC)cc21 (configuration not stated)	> 200	40.7	–
CC1OC(OCC2OC(Oc3ccc4c(=O)c(-c5ccc6c(c5)OCO6)coc4c3)C(O)C(O)C2O)C(O)C(O)C1O (configuration not stated)	129	182	–
Cc1cc(O)c2c(c1)OC1(C)CCC3C(C)(C)CCCC34COC2C14 (configuration not stated)	> 55	1.58	–
NCCCCNCCCNC(=O)c1nc(-c2csc(CCN)n2)sc1Cl	> 200	> 200	–
Cc1ccc(S(=O)(=O)NCCCSCCN)cc1	> 631	562	–
CC1(C)S[C@@H]2[C@H](NC(=O)C3(N)CCCC3)C(=O)N2[C@H]1C(=O)O	> 200	> 200	–
C=C(C)[C@H]1C2=CC(C(=O)OC)=C(C[C@H](C(=C)C)[C@H]3O[C@H]3C3=C[C@H]1OC3=O)O2	> 200	1.62	–
O=C(Nc1ccc2[nH]c(=S)sc2c1)Nc1ccccc1F	> 200	33.1	–
CC(=O)OCC1OC(n2c(=S)n(-c3ccccc3)c(=O)c3cc(Br)ccc32)C(OC(C)=O)C(OC(C)=O)C1OC(C)=O (configuration not stated)	> 10.7	> 10.7	–
CCOC(=O)c1cnc2c(ccc3[nH]n(C)nc32)c1=O	> 251	> 251	–
O=c1[nH]c(=O)n(C2OC(CO)C(O)C2O)cc1OCc1ccccc1 (configuration not stated)	> 708	> 708	–

Compound	EC50 [µM]	IC50 [µM]	outcome
COC(=O)c1ccc(NCC2=CC(=O)c3ccccc3C2=O)cc1	> 200	2.09	–
C(/C=C/Nc1ccc(Oc2ccccc2)cc1)=Nc1ccc(Oc2ccccc2)cc1	> 200	9.33	–
CC(=O)NC(ON1C(=O)COc2ccccc21)C(Cl)(Cl)Cl (configuration not stated)	> 100	> 100	–
O=[N+]([O-])c1nccn1CC(O)c1ccccc1 (configuration not stated)	> 1070	> 1070	–
CC1=CCN(c2ccccn2)OC1c1ccccc1 (configuration not stated)	> 74.1	> 74.1	–
C=C1CN(S(=O)(=O)c2ccc(C)cc2)CCCCN(Cc2ccccc2)CCCN(S(=O)(=O)c2ccc(C)cc2)C1	> 200	6.92	–
CCCCC(N)CSSCC(N)CCCC (configuration not stated)	> 741	21.4	–
O=C1C2CC=CCC2C(=O)N1n1c(-c2ccccc2)n[nH]c1=O (configuration not stated)	> 200	> 200	–
COC12CC(=O)C(C(C)=O)=C(O)C1(C)c1c(OC(C)=O)c(C)c(O)c(C(C)=O)c1O2 (configuration not stated)	> 603	10.7	–
O=C1C=CC(=O)c2c1ccc1c3ccccc3n(Cc3ccc([N+](=O)[O-])cc3)c21	> 200	2.82	–
O=C1C[C@H](c2ccccc2)O[C@@H](c2ccccc2)C1	> 200	> 200	–
CCOC(=O)C(N=O)C(=O)c1ccccc1 (configuration not stated)	–	–	inactive
O=C1OC(=O)C2C1C(c1ccccc1[N+](=O)[O-])C=C(c1ccco1)N2c1ccncc1 (configuration not stated)	> 20	2.51	–
Cc1ccc(/C=C/C(=O)c2cc(CN(C)C)c(O)c(CN(C)C)c2)cc1	> 200	20.4	–
OC1(c2ccccc2)c2ccccc2NC2=NCCN21 (configuration not stated)	> 200	110	–
COC(=O)c1cc(C(=CCCCC(=O)O)c2cc(Cl)c(OC)c(C(=O)OC)c2)cc(Cl)c1OC	> 200	> 200	–
COC(=O)C(CCSC)NC(=O)Cc1ccc(C(=O)c2ccccc2)cc1 (configuration not stated)	> 200	34.7	–
COc1ccc(OC)c2c1ccc1c(C)c3ccccc3c(C)c12	> 200	35.5	–
Cc1cn(Cc2ccccc2CCO)c(=S)[nH]c1=O	> 912	> 912	–
COc1cc2c(cc1OC)C(=O)/C(=C/c1ccccc1)C2	> 200	151	–
